From patent US7897543B2, “Spiroketal-substituted cyclic ketoenols” (Bayer CropScience AG, priority 2005, dated 2011)

Assays:
Meloidogyne incognita [1] = test: Example K: Meloidogyne Test; format: in vivo; conditions: concentration of 20 ppm
Experimental: (§1) To produce a suitable preparation of active compound, 1 part by weight of active compound is mixed with the stated amounts of solvent and emulsifier, and the concentrate is diluted with water to the desired concentration.
(§2) Vessels are filled with sand, solution of active compound, Meloidogyne incognita egg/larvae suspension and lettuce seeds. The lettuce seeds germinate and the plants develop. On the roots, galls are formed.
(§3) After the desired period of time, the nematicidal activity is determined in % by the formation of galls. 100% means that no galls have been found; 0% means that the number of galls on the treated plants corresponds to that of the untreated control.

Setaria viridis = test: Example V 2: Herbicidal Post-Emergence Action; format: in vivo; conditions: greenhouse, 320 g of a.i./ha, about 3 weeks
Experimental: (§4) Seeds of monocotyledonous and dicotyledonous weed and crop plants are placed into sandy loam in wood fibre pots, covered with soil and cultivated in a greenhouse under good growth conditions. 2-3 weeks after sowing, the test plants are treated at the one-leaf stage. The test compounds, formulated as wettable powders (WP), are then, in various dosages with a water application rate of 600 l/ha (converted), with 0.2% of wetting agent added, sprayed onto the green parts of the plants. After the test plants have been kept in the greenhouse under optimum growth conditions for about 3 weeks, the effect of the preparations is rated visually in comparison to untreated controls (herbicidal effect in percent (%): 100% effect=the plants have died, 0% effect=like control plants).

Echinocloa crus-galli = test: Example V 2: Herbicidal Post-Emergence Action; format: in vivo; conditions: greenhouse, 320 g of a.i./ha, about 3 weeks
Experimental: as §4

Lolium multiflorum = test: Example V 2: Herbicidal Post-Emergence Action; format: in vivo; conditions: greenhouse, 320 g of a.i./ha, about 3 weeks
Experimental: as §4

Phaedon cochleariae [2] = test: Example N: Phaedon Test (spray treatment); format: in vivo; conditions: application rate 500 g/ha
Experimental: (§5) [table] To produce a suitable preparation of active compound, 1 part by weight of active compound is mixed with the stated amounts of solvents and emulsifier, and the concentrate is diluted with emulsifier-containing water to the desired concentration. Discs of Chinese cabbage (Brassica pekinensis) are sprayed with a preparation of active compound of the desired concentration and, after drying, populated with larvae of the mustard beetle (Phaedon cochleariae).

Nephotettix cincticeps = test: Example F: Nephotettix Test (7:1); format: in vivo; conditions: concentration of 1000 ppm
Experimental: (§6) To produce a suitable preparation of active compound, 1 part by weight of active compound is mixed with the stated amounts of solvent and emulsifier, and the concentrate is diluted with emulsifier-containing water to the desired concentration.
Rice seedlings (Oryza sativa) are treated by being dipped into the preparation of active compound of the desired concentration and are populated with the green rice leaf hopper (Nephotettix cincticeps) while the leaves are still moist.
After the desired period of time, the kill in % is determined. 100% means that all leaf hoppers have been killed; 0% means that none of the leaf hoppers have been killed.

[3] = system: monocotyledonous and dicotyledonous weed and crop plants; test: Example V 2: Herbicidal Post-Emergence Action; format: in vivo; conditions: greenhouse, 320 g of a.i./ha, about 3 weeks
Experimental: as §4

Plutella xylostella = test: Example D: Plutella Test (7:1); format: in vivo; conditions: concentration of 1000 ppm
Experimental: as §6
Cabbage leaves (Brassica oleracea) are treated by being dipped into the preparation of active compound of the desired concentration and are populated with caterpillars of the diamond back moth (Plutella xylostella) while the leaves are still moist.
After the desired period of time, the kill in % is determined. 100% means that all caterpillars have been killed; 0% means that none of the caterpillars have been killed.

Test plants = test: Example U: Pre-emergence Test; format: in vivo; conditions: greenhouse, 250 g of a.i./ha, after three weeks
Experimental: To produce a suitable preparation of active compound, 1 part by weight of active compound is mixed with the stated amount of solvent, the stated amount of emulsifier is added and the concentrate is diluted with water to the desired concentration.
Seeds of the test plants are sown in normal soil. After about 24 hours, the soil is sprayed with the preparation of active compound such that the particular amounts of active compound desired are applied per unit area. The concentration of the spray liquor is chosen such that the particular amounts of active compound desired are applied in 1000 l of water/ha.
After three weeks, the degree of damage to the plants is rated in % damage in comparison to the development of the untreated control.
The figures denote: • 0%=no effect (like untreated control) • 100%=total destruction

Meloidogyne incognita [4] = test: Example H: Meloidogyne Test (7:1); format: in vivo; conditions: concentration of 20 ppm
Experimental: as §1, §2, §3

Phaedon cochleariae [5] = test: Example M: Phaedon cochleariae Larvae Test; format: in vivo; conditions: concentration of 100 ppm
Experimental: as §5, with “solvent” for “solvents”, “Cabbage leaves” for “Discs of Chinese cabbage”, “oleracea)” for “pekinensis)”, “treated by being dipped into the” for “sprayed with a”, “and are” for “and, after drying,”, “cochleariae) while the leaves are still moist.” for “cochleariae).”

Meloidogyne incognita [6] = test: Example P: Meloidogyne Test (spray treatment); format: in vivo; conditions: concentration of 20 ppm
Experimental: To produce a suitable preparation of active compound, 1 part by weight of active compound is mixed with the stated amount of solvent, and the concentrate is diluted with water to the desired concentration.
as §2, §3

cereal crop plants = test: Profiling tests, herbicidal post-emergence action with safeners: container trials with cereal in a greenhouse, Mefenpyr 1 day prior to herbicide application; conditions: in vivo
Experimental: Test Description for Profiling Tests
2. Herbicidal Post-Emergence Action
Seeds of monocotyledonous and dicotyledonous weed and crop plants are placed into sandy loam in wood fibre pots or in plastic pots, covered with soil and cultivated in a greenhouse, during the vegetation period also outdoors outside of the greenhouse, under good growth conditions. 2-3 weeks after sowing, the test plants are treated at the one- to three-leaf stage. The test compounds, formulated as wettable powders (WP) or emulsifiable concentrates (EC) are, in various dosages with a water application rate of 300 l/ha (converted), with wetting agent (0.2 to 0.3%) added, sprayed onto the plants and the surface of the soil. […] after the treatment of the test plants, the effect of the preparations is rated visually in comparison to untreated controls (herbicidal effect in percent (%): 100% effect=the plants have died, 0% effect=like control plants). […]

| SMILES | herbicidal effect, Setaria (Setaria viridis) | herbicidal effect, Echinochloa (Echinocloa crus-galli) | herbicidal effect, Lolium (Lolium multiflorum) | herbicidal effect, Sinapis [3] | also measured |
| --- | --- | --- | --- | --- | --- |
| Cc1ccc(C)c(C2=C(O)C3(CCC4(CC3)OCCCO4)NC2=O)c1 [Ex. I-1-a-12] | – | – | – | – | nematicidal activity in % (formation of galls) (Meloidogyne incognita [1]): 80% |
| Cc1cc(C)c(C2=C(O)C3(CCC4(CC3)OCCCO4)NC2=O)c(C)c1 [Ex. I-1-a-18] | 100% | 90% | 80% | – | activity in % (Phaedon cochleariae [2]): 100% |
| Cc1cc(C)c(C2=C(O)C3(CCC4(CC3)OCCO4)NC2=O)c(C)c1 [Ex. I-1-a-2] | 90% | 80% | 70% | 60% | activity (kill in %) (Nephotettix cincticeps): 100%; activity (kill in %) (Plutella xylostella): 100% |
| Cc1cc(Cl)cc(C)c1C1=C(O)C2(CCC3(CC2)OCCO3)NC1=O [Ex. I-1-a-4] | – | – | – | – | damage, Amaranthus (Test plants; sub-table 1): 95%; damage, Echinochloa (Test plants; sub-table 1): 100%; damage, Galium (Test plants; sub-table 1): 70%; damage, Setaria (Test plants; sub-table 1): 100%; damage, Sinapis (Test plants; sub-table 1): 70%; nematicidal activity in % (formation of galls) (Meloidogyne incognita [4]): 95% |
| CCOC(=O)OC1=C(c2c(C)cc(C)cc2C)C(=O)NC12CCC1(CC2)OCC(C)O1 (mixture of isomers) [Ex. I-1-c-6] | 90% | 80% | 90% | 60% | activity in % (Phaedon cochleariae [2]): 100% |
| Cc1cc(C)c(C2=C(O)C3(CCC4(CC3)OC(C)C(C)O4)NC2=O)c(C)c1 (mixture of isomers) [Ex. I-1-a-7] | 80% | 60% | 80% | 60% | activity in % (Phaedon cochleariae [2]): 100% |
| Cc1cc(C)c(C2=C(OC(=O)C(C)(C)C)C3(CCC4(CC3)OCCO4)OC2=O)c(C)c1 [Ex. I-2-b-2] | – | – | – | – | activity (kill in %) (Nephotettix cincticeps): 100%; activity (kill in %) (Plutella xylostella): 100% |
| Cc1cc(C)c(C2=C(O)C3(CCC4(CC3)OCC(C)(C)CO4)NC2=O)c(C)c1 [Ex. I-1-a-23] | – | – | – | – | activity (kill in %) (Phaedon cochleariae [5]): 100% |
| Cc1cc(Br)cc(C)c1C1=C(O)C2(CCC3(CC2)OCCCO3)NC1=O [Ex. I-1-a-19] | 90% | 90% | 90% | 70% | – |
| Cc1cc(C)c(C2=C(O)C3(CCC4(CC3)OC(C)CC(C)O4)NC2=O)c(C)c1 (mixture of isomers) [Ex. I-1-a-21] | 90% | 80% | 80% | 70% | – |
| O=C1NC2(CCC3(CC2)OCCCO3)C(O)=C1c1cc(-c2ccc(Cl)cc2)ccc1Cl [Ex. I-1-a-15] | – | – | – | – | nematicidal activity in % (formation of galls) (Meloidogyne incognita [6]): 100%; damage, Sugar beet (Test plants; crop plant, sub-table 3): 0%; damage, Alopecurus (Test plants; sub-table 3): 95%; damage, Avena fatua (Test plants; sub-table 3): 80%; damage, Echinochloa (Test plants; sub-table 3): 99%; damage, Setaria (Test plants; sub-table 3): 70% |
| CCOC(=O)OC1=C(c2c(CC)cc(Cl)cc2OC)C(=O)NC12CCC1(CC2)OCCO1 [Ex. I-1-c-25] | – | – | – | – | Summer barley observed (%) (cereal crop plants): 50% |
| Cc1cc(C)c(C2=C(O)C3(CCC4(CC3)OCCO4)OC2=O)c(C)c1 [Ex. I-2-a-2] | 100% | 80% | 90% | 70% | activity (kill in %) (Nephotettix cincticeps): 100%; herbicidal effect, Amaranthus [3]: 60%; activity (kill in %) (Plutella xylostella): 100% |
| Cc1cc(Cl)cc(C)c1C1=C(O)C2(CCC3(CC2)OCCCO3)OC1=O [Ex. I-2-a-6] | 80% | 60% | 80% | 60% | – |
